“Also recorded” adds a separate entry of the source. Each block holds one molecule with its values, some of them ahead of it.
Columns and labels:
[1] = Dog cassette dosing IV pharmacokinetics; assay type: in vivo; conditions: plasma, male beagle dogs
Protocol: Non-naïve male beagle dogs (8 months to 3 years of age, body weight 8-14 kg) sourced from Jiangsu Johnsen Bioresource CO. and/or Beijing Rixinkeji CO., LTD and/or Beijing Marshall Biotechnology CO., LTD were used in this study. All animals for IV administration had free access to food and water. The IV dose solution was prepared in 10% DMA/50% PG/40% HP0CD solution (40% w/v aqueous HP0CD) at a concentration of 0.2 mg/mL. Concentrations of IV dose was measured at the end of the study. PK parameters were calculated using the nominal dose values if the measured values were within 20% of the nominal values. Blood samples were collected by venipuncture of peripheral veins except the dosing vein at pre-dose, 5 15, 30 min, 1, 2, 4, 6, 8 and 24 h post-dose. Blood samples were centrifuged and resultant plasma was frozen for bioanalysis. Plasma samples were stored at −80° C. before analysis. Plasma samples were analyzed for compound concentrations using the LC/MS/MS method. Briefly, a 50 p L aliquot of each plasma sample was mixed with 100 μL of acetonitrile that contained an internal standard. The mixture was vortexed and centrifuged. Ten (10) μL of the resulting solution was injected onto a reverse-phase C18 column and the resultant peaks detected on a LC/MS/MS equipped with a turbo ionspray ionization source. Sample concentrations below the limit of quantification (BLQ) were treated as zero for PK calculations. […] The elimination rate constant (k) was calculated as the absolute value of the slope of the linear regression of logarithm (log) of the concentration versus time for the last three data points of the concentration-time profiles. Apparent elimination half-life (t½) values were calculated as 1n(2)/k. […] AUC values were calculated from the dosing time to the last measurable concentration. AUC∞ values were calculated as the sum of the corresponding AUC and the ratio of the last detectable concentration divided by k. Plasma clearance (CL) was calculated from Dose/AUC.. […] Vss was calculated from MRT∞×CL. Maximum concentration (Cmax) and time to reach Cmax (tmax) were recorded as observed. […]

[2] = Stability of Form II in solvents after 24 hours (HPLC); assay type: physicochemical; conditions: for Form II Peak Area T = 24 hours: 24 hours at ambient (25° C.); for Form II Peak Area: initial injection; for Visual Observations (signs of degradation in chromatograms): initial vs T = 24 hours;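 as to Form II Peak Area T = 24 hours: same diluted solubility sample reinjected at the initial injection volume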
Excerpt: The chromatograms were then overlayed and visual signs of degradation were noted, i.e., loss of compound 1 peak area or increase of other peaks in the chromatography.

- clearance [1]: 5.12 mL/min/kg
- half-life [1]: 708 min
- Vd ([1]; read-out: Vss): 4.48 L/kg
SMILES: C[C@H]1CC[C@H](N2CC(=O)N(Cc3ccc(F)c(F)c3)C3(CN(C=O)C3)C2=O)CC1 [Compound 1, 5-(3,4-difluorobenzyl)-8-((1r,4r)-4-methylcyclohexyl)-6,9-dioxo-2,5,8-triazaspiro[3.5]nonane-2-carbaldehyde]

- Form II Peak Area T = 24 hours ([2]; 2-BuOH): 35.2
- Form II Peak Area ([2]; 2-BuOH): 35.3
- Visual Observations (signs of degradation in chromatograms) ([2]; 2-BuOH): No sign of degradation
- Form II Peak Area T = 24 hours ([2]; 2-Me-THF): 51.5
- Form II Peak Area ([2]; 2-Me-THF): 51.7
- Visual Observations (signs of degradation in chromatograms) ([2]; 2-Me-THF): No sign of degradation
- Form II Peak Area T = 24 hours ([2]; Acetone): 167.7
- Form II Peak Area ([2]; Acetone): 166.0
- Form II Peak Area T = 24 hours ([2]; DI Water): 10.8
- Form II Peak Area ([2]; DI Water): 10.8
- Visual Observations (signs of degradation in chromatograms) ([2]; DI Water): No sign of degradation
- Form II Peak Area T = 24 hours ([2]; DMSO): 194.2
- Form II Peak Area ([2]; DMSO): 193.2
- Form II Peak Area T = 24 hours ([2]; EtOH): 54.7
- Form II Peak Area ([2]; EtOH): 53.1
- Form II Peak Area T = 24 hours ([2]; IPA): 30.5
- Form II Peak Area ([2]; IPA): 30.3
- Visual Observations (signs of degradation in chromatograms) ([2]; IPA): No sign of degradation
- Form II Peak Area T = 24 hours ([2]; Isopropyl acetate): 66.3
- Form II Peak Area ([2]; Isopropyl acetate): 66.6
- Form II Peak Area T = 24 hours ([2]; MIBK): 85.1
- Form II Peak Area ([2]; MIBK): 85.1
- Visual Observations (signs of degradation in chromatograms) ([2]; MIBK): No sign of degradation
- Form II Peak Area T = 24 hours ([2]; MeCN): 190.4
- Form II Peak Area ([2]; MeCN): 188.0
- Form II Peak Area T = 24 hours ([2]; MeOH): 202.1
- Form II Peak Area ([2]; MeOH): 199.0
- Form II Peak Area T = 24 hours ([2]; THF): 177.4
- Form II Peak Area ([2]; THF): 177.3
- Form II Peak Area T = 24 hours ([2]; Tert-Butylmetyl ether): 24.7
- Form II Peak Area ([2]; Tert-Butylmetyl ether): 24.2
- Visual Observations (signs of degradation in chromatograms) ([2]; Tert-Butylmetyl ether): Large impurity peak eluting after
- Form II Peak Area T = 24 hours ([2]; Toluene): 40.5
- Form II Peak Area ([2]; Toluene): 41.2
- Visual Observations (signs of degradation in chromatograms) ([2]; Toluene): No sign of degradation
SMILES: C[C@H]1CC[C@H](N2CC(=O)N(Cc3ccc(F)c(F)c3)C3(CN(C=O)C3)C2=O)CC1 [Form II, 5-(3,4-difluorobenzyl)-8-((1r,4r)-4-methylcyclohexyl)-6,9-dioxo-2,5,8-triazaspiro[3.5]nonane-2-carbaldehyde]
- Visual Observations (signs of degradation in chromatograms) ([2]; Acetone): no visual signs of further degradation; also recorded: No sign of degradation
- Visual Observations (signs of degradation in chromatograms) ([2]; DMSO): no visual signs of further degradation; also recorded: No sign of degradation
- Visual Observations (signs of degradation in chromatograms) ([2]; EtOH): did not appear to degrade further; also recorded: Late eluting impurity peak, present
- Visual Observations (signs of degradation in chromatograms) ([2]; Isopropyl acetate): did not seem to degrade further; also recorded: Impurities eluting after compound 1
- Visual Observations (signs of degradation in chromatograms) ([2]; MeCN): no visual signs of further degradation; also recorded: No sign of degradation
- Visual Observations (signs of degradation in chromatograms) ([2]; MeOH): no visual signs of further degradation; also recorded: No sign of degradation
- Visual Observations (signs of degradation in chromatograms) ([2]; THF): no visual signs of further degradation; also recorded: No sign of degradation

Source: US20240132498A1, “CRYSTALLINE FORMS OF 5-(3,4-DIFLUOROBENZYL)-8-((1R,4R)-4-METHYLCYCLOHEXYL)-6,9-DIOXO-2,5,8-TRIAZASPIRO[3.5]NONANE-2-CARBALDEHYDE” (Cytokinetics, Incorporated, priority 2022, published 2024)
